# Patent publication EP4631941A1 (Jiangsu Tasly Diyi Pharmaceutical Co., Ltd., priority 2022, dated 2024)
# Where a name gives a salt, the structure may show the parent alone. Read-outs that look alike come from different tables or passages of the source.
# Key:
# [1] = system: human prostate cancer cell DU145 xenografts in nude mice; experiment: In vivo efficacy assay against prostate cancer (DU145 xenograft); parameters: species or system BALB/c nude mice; conditions: Example 20 study, 21 days; for T/C(%) / tumor inhibition rate: DU145 xenograft; for body weight of nude mice during dosing: each group, once a day
# DYRK2 kinase = molecular target: T1, DYRK2 kinase (Homo sapiens, UniProt Q92630); experiment: DYRK2 kinase activity analysis assay (33P-ATP, DYRKtide substrate, P81 filter paper); format: biochemical; conditions: 2 hours at room temperature
# T1 sequence (Q92630 1-601): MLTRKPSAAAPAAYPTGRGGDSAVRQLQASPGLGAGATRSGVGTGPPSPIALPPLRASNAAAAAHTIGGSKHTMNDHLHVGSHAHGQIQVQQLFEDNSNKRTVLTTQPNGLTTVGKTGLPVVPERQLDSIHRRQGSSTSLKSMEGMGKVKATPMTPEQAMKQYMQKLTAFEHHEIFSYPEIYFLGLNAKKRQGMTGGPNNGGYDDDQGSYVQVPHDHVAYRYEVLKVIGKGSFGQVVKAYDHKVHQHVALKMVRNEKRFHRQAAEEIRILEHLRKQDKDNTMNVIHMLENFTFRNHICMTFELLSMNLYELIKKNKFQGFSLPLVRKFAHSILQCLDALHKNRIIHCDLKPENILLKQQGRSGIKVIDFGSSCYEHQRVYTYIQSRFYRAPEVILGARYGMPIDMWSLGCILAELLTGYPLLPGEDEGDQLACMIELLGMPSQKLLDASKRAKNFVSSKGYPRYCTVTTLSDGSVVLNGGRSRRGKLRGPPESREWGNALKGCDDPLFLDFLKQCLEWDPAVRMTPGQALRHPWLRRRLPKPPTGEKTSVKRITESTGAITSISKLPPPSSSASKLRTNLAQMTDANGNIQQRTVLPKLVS
# [2] = system: prostate cancer DU145 cells; experiment: Cell proliferation inhibition activity assay (CCK-8 method), DU145; format: cell-based
# ICR mice = experiment: Acute toxicity test, single gavage, 14 days observation; format: in vivo
# [3] = system: prostate cancer 22Rv1 cells; experiment: Cell proliferation inhibition activity assay (CCK-8 method), 22Rv1; format: cell-based
structure (smiles),measurement,setting,value
"CNC(=O)c1ccc(N2C(=S)N(c3ccc(C#N)c(C(F)(F)F)c3)C(=O)C2(C)C)cc1F [enzalutamide, reference compound]",T/C(%),[1]; 100 mg/kg once a day,42.0%
same,tumor inhibition rate,[1]; 100 mg/kg once a day,57.8%
same,body weight of nude mice during dosing,[1],no significant decrease in body weight
"CC(=O)N1CCN(C(=O)c2ccc(Nc3ncc(F)c(-c4ccc5nc(N(C)C)sc5c4)n3)nc2)CC1 [Example 35, 1-(4-(6-((4-(2-(dimethylamino)benzothiazole-6-yl)-5-fluoropyrimidine-2-yl)amino)nicotinoyl)piperazine-1-yl)ethyl-1-one]",IC50,DYRK2 kinase; IC50 (nM),22 nM
"CN(C)c1nc2cc(-c3nc(Nc4ccc(C(=O)N5CCNCC5)nc4)ncc3F)ccc2s1 [Example 32, (5-((4-(2-(dimethylamino)benzothiazole-5-yl)-5-fluoropyrimidine-2-yl)amino)pyridine-2-yl)(piperazine-1-yl)ketone hydrochloride]",IC50,DYRK2 kinase; read-out: IC50,9 nM
"CC(=O)N1CCN(C(=O)c2ccc(Nc3ncc(F)c(-c4ccc5scnc5c4)n3)nc2)CC1 [Example 15, 1-(4-(6-((4-(benzothiazole-5-yl)-5-fluoropyrimidine-2-yl)amino)nicotinoyl)piperazine-1-yl)ethyl-1-one]",IC50,DYRK2 kinase; read-out: IC50,28 nM
"Cl.O=C(c1ccc(Nc2ncc(F)c(-c3ccc4scnc4c3)n2)nc1)N1CCNCC1 [Example 20, (6-((4-(benzothiazole-5-yl)-5-fluoropyrimidine-2-yl)amino)pyridine-3-yl)(piperazine-1-yl)ketone hydrochloride]",IC50,DYRK2 kinase; read-out: IC50,0.6 nM
same,IC50,"[2]; Homo sapiens, DU-145, DU145 cells, 72 hours, CCK8",3.25 ± 0.06 µM
same,inhibition of proliferation of prostate cancer DU145 cell,[2]; result in words,significantly inhibit
same,death of animals after day 14 of dosing,"ICR mice; gavage once, 1000, 2500, 5000 and 10000 mg/kg, day 14",no animals died
same,"weight of main organs (heart, liver, spleen, lung, kidney) versus control group","ICR mice; gavage once, 1000, 2500, 5000 and 10000 mg/kg, dissection after 14 days",no difference in the weight of main organs
same,abnormality after dosing,"ICR mice; gavage once, 1000, 2500, 5000 and 10000 mg/kg, within 12 hours after dosing",no abnormality was observed
same,death of animals within 24 hours of dosing,"ICR mice; gavage once, 1000, 2500, 5000 and 10000 mg/kg, within 24 hours",No animals died
same,toxic or side effects (overall conclusion),"ICR mice; gavage once, up to 10000 mg/kg",no obvious toxic or side effects
same,T/C(%),[1]; 100 mg/kg once a day,50.9%
same,tumor inhibition rate,[1]; 100 mg/kg once a day,48.7%
same,body weight of nude mice during dosing,[1],no significant decrease in body weight
same,T/C(%),[1]; high dose 200 mg/kg once a day,34.4%
same,tumor inhibition rate,[1]; high dose 200 mg/kg once a day,65.3%
same,IC50,"[3]; Homo sapiens, 22Rv1 cells, 72 hours, CCK8",2.55 ± 0.046 µM
same,inhibition of proliferation of prostate cancer 22Rv1 cell,[3]; result in words,significantly inhibit
